These compounds were tested on HEK293T cells carrying the ATF4 luciferase reporter (assay: ATF4-Luc assay (in vitro model of VWMD)). Settings: Homo sapiens, HEK-293T, 1 μg/mL tunicamycin, 7 hours, One Glo luminescence.
Assay type: cell-based, human
Procedure: In order to test exemplary compounds of the invention in a cellular context, a stable VWMD cell line was first constructed. The ATF4 reporter was prepared by fusing the human full-length ATF4 5′-UTR (NCBI Accession No. BC022088.2) in front of the firefly luciferase (FLuc) coding sequence lacking the initiator methionine as described in Sidrauski et al (eLife 2013). The construct was used to produce recombinant retroviruses using standard methods and the resulting viral supernatant was used to transduce HEK293T cells, which were then subsequently selected with puromycin to generate a stable cell line.
HEK293T cells carrying the ATF4 luciferase reporter were plated on polylysine coated 384-well plates (Greiner Bio-one) at 30,000 cells per well. Cells were treated the next day with 1 μg/mL tunicamycin and 200 nM of a compound of Formula (I) for 7 hours. Luminescence was measured using One Glo (Promega) as specified by the manufacturer. Cells were maintained in DMEM with L-glutamine supplemented with 10% heat-inactivated FBS (Gibco) and Antibiotic-Antimycotic solution (Gibco).
Table 4 below summarizes the EC50 data obtained using the ATF4-Luc assay for exemplary compounds of the invention.

Compound | EC50 [nM]
O=C(CO[C@H]1C[C@@H](OC(F)(F)F)C1)NC12CCC(NC(=O)COc3ccc(Cl)c(F)c3)(CC1)[C@@H](O)C2 [Compound 112, 2-(4-chloro-3-fluorophenoxy)-N-[(2S)-2-hydroxy-4-(2-{[(1s,3R)-3-(trifluoromethoxy)cyclobutyl]oxy}acetamido)bicyclo[2.2.2]octan-1-yl]acetamide] | < 10
O=C(CO[C@H]1C[C@@H](OC(F)(F)F)C1)NC12CC(NC(=O)C3CC(=O)c4cc(Cl)ccc4O3)(C1)C2 (stereo partly shown) [Compound 113, 6-chloro-4-oxo-N-[3-(2-{[(1s,3s)-3-(trifluoromethoxy)cyclobutyl]oxy}acetamido)bicyclo[1.1.1]pentan-1-yl]-3,4-dihydro-2H-1-benzopyran-2-carboxamide] | 10 to 50
O=C(CO[C@H]1C[C@@H](OC(F)(F)F)C1)NC12CCC(NC(=O)[C@H]3CC(=O)c4cc(Cl)ccc4O3)(CC1)C[C@@H]2O [Compound 115, (2R)-6-chloro-N-[(3S)-3-hydroxy-4-(2-{[(1s,3R)-3-(trifluoromethoxy)cyclobutyl]oxy}acetamido)bicyclo[2.2.2]octan-1-yl]-4-oxo-3,4-dihydro-2H-1-benzopyran-2-carboxamide] | < 10
O=C(COc1ccc(Cl)cc1)NC12CCC(NC(=O)CO[C@H]3C[C@@H](OC(F)(F)F)C3)(CC1)CC2 [Compound 116, 2-(4-chlorophenoxy)-N-[4-(2-{[(1s,3s)-3-(trifluoromethoxy)cyclobutyl]oxy}acetamido)bicyclo[2.2.2]octan-1-yl]acetamide] | < 10
O=C(CO[C@H]1C[C@@H](OC(F)(F)F)C1)NC12CCC(NC(=O)[C@H]3C[C@@H](O)c4cc(Cl)ccc4O3)(CC1)C[C@@H]2O [Compound 117, (2R,4R)-6-chloro-4-hydroxy-N-[(3S)-3-hydroxy-4-(2-{[(1s,3R)-3-(trifluoromethoxy)cyclobutyl]oxy}acetamido)bicyclo[2.2.2]octan-1-yl]-3,4-dihydro-2H-1-benzopyran-2-carboxamide] | < 10
O=C(COc1ccc(Cl)c(F)c1)NC12CC(NC(=O)[C@H]3C[C@@H](OC(F)(F)F)C3)(C1)C2 [Compound 118, (1s,3s)-N-{3-[2-(4-chloro-3-fluorophenoxy)acetamido]bicyclo[1.1.1]pentan-1-yl}-3-(trifluoromethoxy)cyclobutane-1-carboxamide] | 500 to 2000
O=C(NC12CC(C(=O)NCc3ccc(C(F)(F)F)cn3)(C1)C2)[C@H]1C[C@@H](O)c2cc(Cl)ccc2O1 [Compound 119, (2R,4R)-6-chloro-4-hydroxy-N-[3-({[5-(trifluoromethyl)pyridin-2-yl]methyl}carbamoyl)bicyclo[1.1.1]pentan-1-yl]-3,4-dihydro-2H-1-benzopyran-2-carboxamide] | 10 to 50
O=C(COc1ccc(Cl)c(F)c1)N[C@@H]1CC[C@@H](C(=O)N2CC(Oc3ccc(Cl)cc3)C2)OC1 [Compound 120, 2-(4-chloro-3-fluorophenoxy)-N-{(3R,6S)-6-[3-(4-chlorophenoxy)azetidine-1-carbonyl]oxan-3-yl}acetamide] | 10 to 50
O=C(COc1ccc(Cl)c(F)c1)NC12CCC(c3nnc([C@H]4C[C@@H](OC(F)(F)F)C4)o3)(CC1)CC2O (stereo partly shown) [Compound 124, 2-(4-chloro-3-fluorophenoxy)-N-(2-hydroxy-4-{5-[(1s,3s)-3-(trifluoromethoxy)cyclobutyl]-1,3,4-oxadiazol-2-yl}bicyclo[2.2.2]octan-1-yl)acetamide] | 10 to 50
O=C(N[C@H]1C[C@H]2CC[C@@H](C1)N2CCCOc1ccc(Cl)cc1)[C@H]1C[C@@H](O)c2cc(Cl)ccc2O1 [Compound 125, (2R,4R)-6-chloro-N-{(1R,3r,5S)-8-[3-(4-chlorophenoxy)propyl]-8-azabicyclo[3.2.1]octan-3-yl}-4-hydroxy-3,4-dihydro-2H-1-benzopyran-2-carboxamide] | 50 to 250
O=C(NC12CC(C(=O)NCc3nc4cc(F)c(F)cc4[nH]3)(C1)C2)[C@H]1C[C@@H](O)c2cc(Cl)ccc2O1 [Compound 127, (2R,4R)-6-chloro-N-(3-{[(5,6-difluoro-1H-benzimidazol-2-yl)methyl]carbamoyl}bicyclo[1.1.1]pentan-1-yl)-4-hydroxy-3,4-dihydro-2H-1-benzopyran-2-carboxamide] | 10 to 50
O=C(NC12CC(NC(=O)[C@H]3C[C@@H](OC(F)(F)F)C3)(C1)C2)[C@H]1C[C@@H](O)c2cc(Cl)ccc2O1 [Compound 128, (2R,4R)-6-chloro-4-hydroxy-N-(3-{[(1s,3S)-3-(trifluoromethoxy)cyclobutane-1-carbonyl]amino}bicyclo[1.1.1]pentan-1-yl)-3,4-dihydro-2H-1-benzopyran-2-carboxamide] | 500 to 2000
O=C(COc1ccc(Cl)c(F)c1)NC12CC(C(=O)NCC3CCc4cc(Cl)ccc4O3)(C1)C2 (stereo not shown) [Compound 129, N-[(6-chloro-3,4-dihydro-2H-1-benzopyran-2-yl)methyl]-3-[2-(4-chloro-3-fluorophenoxy)acetamido]bicyclo[1.1.1]pentane-1-carboxamide] | 10 to 50
O=C(COc1ccc(Cl)c(F)c1)N[C@H]1CC[C@H](NC(=O)C2CC(=O)c3cc(Cl)ccc3O2)CC1 (stereo partly shown) [Compound 130, 6-chloro-N-{(1r,4r)-4-[2-(4-chloro-3-fluorophenoxy)acetamido]cyclohexyl}-4-oxo-3,4-dihydro-2H-1-benzopyran-2-carboxamide] | 250 to 500
O=C1C[C@H](C(=O)NC23CC(C(=O)NCc4ccc(C(F)(F)F)cn4)(C2)C3)Oc2ccc(Cl)cc21 [Compound 132, (2R)-6-chloro-4-oxo-N-[3-({[5-(trifluoromethyl)pyridin-2-yl]methyl}carbamoyl)bicyclo[1.1.1]pentan-1-yl]-3,4-dihydro-2H-1-benzopyran-2-carboxamide] | 50 to 250
O=C1CC(C(=O)NC23CC(C(=O)NCc4ccc(C(F)(F)F)cn4)(C2)C3)Oc2ccc(Cl)cc21 (stereo not shown) [Compound 134, 6-chloro-4-oxo-N-[3-({[5-(trifluoromethyl)pyridin-2-yl]methyl}carbamoyl)bicyclo[1.1.1]pentan-1-yl]-3,4-dihydro-2H-1-benzopyran-2-carboxamide] | 250 to 500
O=C1C[C@H](C(=O)NC23CC(C(=O)NCc4nc5cc(F)c(F)cc5[nH]4)(C2)C3)Oc2ccc(Cl)cc21 [Compound 135, (2R)-6-chloro-N-(3-{[(5,6-difluoro-1H-benzimidazol-2-yl)methyl]carbamoyl}bicyclo[1.1.1]pentan-1-yl)-4-oxo-3,4-dihydro-2H-1-benzopyran-2-carboxamide] | 50 to 250
O=C1CC(C(=O)N[C@@H]2CC[C@@H](C(=O)NCc3ccc(C(F)(F)F)cc3)OC2)Oc2ccc(Cl)cc21 (stereo partly drawn) [Compound 137, 6-chloro-4-oxo-N-[(3R,6S)-6-({[4-(trifluoromethyl)phenyl]methyl}carbamoyl)oxan-3-yl]-3,4-dihydro-2H-1-benzopyran-2-carboxamide] | 50 to 250
O=C1CC(C(=O)N[C@H]2CC[C@H](C(=O)NCc3nc4ccc(Cl)cc4[nH]3)CC2)Oc2ccc(Cl)cc21 (stereo partly shown) [Compound 138, 6-chloro-N-[(1r,4r)-4-{[(6-chloro-1H-benzimidazol-2-yl)methyl]carbamoyl}cyclohexyl]-4-oxo-3,4-dihydro-2H-1-benzopyran-2-carboxamide] | 50 to 250
O=C1CC(C(=O)N[C@@H]2CC[C@@H](C(=O)N3CC(Oc4ccc(Cl)cc4)C3)OC2)Oc2ccc(Cl)cc21 (stereo partly drawn) [Compound 139, 6-chloro-N-{(3R,6S)-6-[3-(4-chlorophenoxy)azetidine-1-carbonyl]oxan-3-yl}-4-oxo-3,4-dihydro-2H-1-benzopyran-2-carboxamide] | 500 to 2000
O=C1CC(C(=O)N[C@@H]2CC[C@@H](C(=O)NCc3cn4ccc(Cl)cc4n3)OC2)Oc2ccc(Cl)cc21 (stereo partly drawn) [Compound 140, 6-chloro-N-[(3R,6S)-6-{[(7-chloroimidazo[1,2-a]pyridin-2-yl)methyl]carbamoyl}oxan-3-yl]-4-oxo-3,4-dihydro-2H-1-benzopyran-2-carboxamide] | 50 to 250
O=C(COc1ccc(Cl)c(F)c1)N[C@H]1CC[C@H](NC(=O)C2CC(O)c3cc(Cl)ccc3O2)CC1 (stereo partly shown) [Compound 141, 6-chloro-N-{(1r,4r)-4-[2-(4-chloro-3-fluorophenoxy)acetamido]cyclohexyl}-4-hydroxy-3,4-dihydro-2H-1-benzopyran-2-carboxamide] | 10 to 50
Cc1cc(C)cc(OCC2CN(C34CC(NC(=O)[C@H]5C[C@@H](O)c6cc(Cl)ccc6O5)(C3)C4)C(=O)O2)c1 (stereo partly drawn) [Compound 142, (2R,4R)-6-chloro-N-(3-{5-[(3,5-dimethylphenoxy)methyl]-2-oxo-1,3-oxazolidin-3-yl}bicyclo[1.1.1]pentan-1-yl)-4-hydroxy-3,4-dihydro-2H-1-benzopyran-2-carboxamide] | > 2000
O=C(NC1CC2(C1)CN(C(=O)COc1ccc(Cl)c(F)c1)C2)[C@H]1C[C@@H](O)c2cc(Cl)ccc2O1 [Compound 143, (2R,4R)-6-chloro-N-{2-[(4-chloro-3-fluorophenoxy)acetyl]-2-azaspiro[3.3]heptan-6-yl}-4-hydroxy-3,4-dihydro-2H-1-benzopyran-2-carboxamide] | 50 to 250
O=C(COc1ccc(Cl)c(F)c1)NC1CC2(C1)CN(C(=O)C1CC(=O)c3cc(Cl)ccc3O1)C2 (stereo not shown) [Compound 144, 2-(4-chloro-3-fluorophenoxy)-N-[2-(6-chloro-4-oxo-3,4-dihydro-2H-1-benzopyran-2-carbonyl)-2-azaspiro[3.3]heptan-6-yl]acetamide] | 50 to 250
